Article PMC10675077, “Antimicrobial Properties of New Polyamines Conjugated with Oxygen-Containing Aromatic Functional Groups” (Molecules, 2023)
≈ marks a conversion by molar mass, not a printed value. Where two headings read alike, the source gives them in different places.

Key:
Escherichia coli JM101 = experiment: MIC, microdilution in culture medium, E. coli; format: cell-based; settings: Escherichia coli, read-out: MIC, Bacteria, E. coli JM101
Excerpt: (§1) The microorganisms used for the susceptibility tests were the bacteria Escherichia coli JM101 and Staphylococcus aureus BHI, and the yeast Saccharomyces cerevisiae strains BY4741 (MAT a his3Δ1 leu2Δ0 met15Δ0 ura3Δ0 (EUROSCARF)) carrying YEplac195 (from EUROSCARF) or YEPlac195-PDR5 (provided by Ayse Banu Demir, Izmir University of Economics, Turkey) plasmids.
(§2) Bacterial strains were usually maintained and grown in an LB medium (0.5% (w/v) yeast extract, 1% (w/v) bactotryptone, and 1% (w/v) NaCl) at 37 °C. For MIC (minimal inhibitory concentration) and MMC (minimal microbicidal concentration) assays, and for the determination of synergies, overnight growth was carried out in 2% (w/v) bactopeptone (BP), and then the cultures were diluted and incubated for several hours in 2% (w/v) BP for ensuring logarithmic growth. Yeast strains were grown in an SC-ura medium (0.17% (w/v) yeast nitrogen base without amino acids and ammonium sulphate, 0.2% (w/v) drop-out without uracil, 0.5% (w/v) (NH4)2SO4, and 2% (w/v) glucose) at 30 °C. Liquid cultures were incubated with shaking (200 rpm). Solid media also contained 2% (w/v) agar.
(§3) For the analysis of the antimicrobial activity, the strategies and indications of Cushnie et al. were considered. The standardised method of microdilution in a culture medium was followed to determine the MIC [55]. In bacterial strains, serial dilutions of the compounds to be tested and the control antibiotics were prepared in phosphate buffer (20 mM, pH 7.4, 0.5 mL) and were mixed with a suspension of bacterial cells in a logarithmic growth phase (in 1% BP, 0.5 mL). The final OD600 of the whole solutions were 0.004 and 0.008 for E. coli and S. aureus cultures, respectively. After 20 h of incubation at 37 °C with shaking, the MIC was determined as the lowest concentration of each compound in which no visible bacterial growth was observed.

[1] = test system: Staphylococcus aureus BHI; experiment: MIC, microdilution in culture medium, S. aureus; format: cell-based; settings: Staphylococcus aureus, 20 h, read-out: MIC, Bacteria, S. aureus BHI
Excerpt: as §1, §2, §3

[2] = test system: Saccharomyces cerevisiae BY4741/YEplac195-PDR5; experiment: microbe, parasite or virus in culture; format: cell-based; settings: Saccharomyces cerevisiae, 24 h, read-out: MIC, Yeast, BY4741/ PDR5
Excerpt: as §1, §2
(§4) The determination of the MIC for yeast strains was carried out following a similar procedure to that of the polyamines and antifungal reference agents: Serial dilutions of each one in phosphate buffer (20 mM, pH 7.4, 0.5 mL) were prepared and mixed with a suspension of yeast cells (OD600 0.04 in SC-ura 2X (VWR, Atlanta, GA, USA), 0.5 mL). […] Experiments were carried out at least three times in all cases.

[3] = test system: Saccharomyces cerevisiae BY4741/YEplac195; experiment: microbe, parasite or virus in culture; format: cell-based; settings: Saccharomyces cerevisiae, 24 h, read-out: MIC, Yeast, BY4741/ YEplac195
Excerpt: as §1, §2, §4

[4] = Potentiometric titrations in water (protonation constants); format: physicochemical; settings: for log β (cumulative protonation constant): calculated as log β = ∑j log KHjL; for n, average number of positive charges at pH 7.4: calculated from protonation constants
Description: The potentiometric titrations were carried out at 298.1 ± 0.1 K using NaCl 0.15 M as a supporting electrolyte. The experimental procedure (burette, potentiometer, cell, stirrer, microcomputer, etc.) has been fully described elsewhere. The acquisition of the EMF data was performed with the computer program PASAT [50]. The reference electrode was a Ag/AgCl electrode in a saturated KCl solution. The glass electrode was calibrated as a hydrogen-ion concentration probe via the titration of previously standardised amounts of HCl with CO2-free NaOH solutions and the equivalent point determined using the Gran method, which provides the standard potential, E^θ′, and the ionic product of water (pKw = 13.73(1)).
The computer program […] was used to calculate the protonation constants. The pH range investigated was 2.5–11.0, and the concentration of the ligands ranged from 5 × 10^−4 to 5 × 10^−[…]. The different titration curves for each system (at least two) were treated either as a single set or as separated curves without significant variations in the values of the stability constants. Finally, the sets of data were merged and treated simultaneously to give the final stability constants.

[5] = test system: Yeast (S. cerevisiae strains); experiment: MIC, yeast (strain not specified); format: cell-based, Saccharomyces cerevisiae; settings: Saccharomyces cerevisiae; yeast strain not specified (Tables 5 and 10); read-out: MIC Yeast
Description: as §4

E. coli JM101 = experiment: Minimal bactericidal concentration, E. coli; format: cell-based, Escherichia coli; settings: Escherichia coli, JM101; overnight incubation, plating on LB; bacteriostatic if growth at 4 times the MIC
Description: (§5) Once the MIC was known, the samples were prepared as described in the previous section with polyamine concentrations corresponding to the MIC and half, double, and four times its value. After overnight incubation with the microorganisms, 30 μL of a ten-fold dilution of each one was spread in LB (in the case of bacterial strains) or SC-ura (for yeast strains) plates. They were incubated for 20 h at 37 °C (bacteria) or 48 h at 30 °C (yeasts), and the level of growth was determined. […] Experiments were carried out at least three times.

S. aureus BHI = experiment: Minimal bactericidal concentration, S. aureus; format: cell-based, Staphylococcus aureus; settings: Staphylococcus aureus; overnight incubation, plating on LB
Description: as §5

[6] = Cytotoxicity, flow cytometry viability assay with propidium iodide; format: cell-based, human; settings: human, Jurkat cells (human lymphocytic leukaemia, ATCC TIB-152), 24 h treatment, average of three experiments, read-out: IC50, cytotoxicity on the human Jurkat cell line
Description: The cytotoxicity of the compounds was assessed via flow cytometry with a viability assay using propidium iodide (PI), a DNA-binding fluorescent probe not permeant to live cells, which is commonly used to detect dead cells in a population. The human lymphocytic leukaemia Jurkat cell line (ATCC TIB-152) was obtained from the American Type Cell Culture (Sigma-Aldrich) and grown in suspension in an RPMI 1640 medium (Thermo Fisher Scientific, Waltham, MA, USA) supplemented with L-glutamine, antibiotics, and 10% heat-inactivated foetal calf serum (FCS, Thermo Fisher Scientific, Waltham, MA, USA). For the viability assay, cells were seeded in plastic 96-well plates at […] in an RPMI 1640 medium supplemented with 5% FCS. The cells were treated for 24 h with a range of concentrations of the test compounds or with the same volume of phosphate buffer (PBS) in control wells. After incubation, cell suspensions were washed, resuspended in 400 μL fresh medium, and incubated for 5 min at room temperature in the dark with 3.75 μM PI (Sigma-Aldrich). Cell viability was determined via flow cytometry using a Gallios flow cytometer (Beckman Coulter). PI fluorescence was excited with an argon-ion laser at 488 nm and collected through a 620/630 nm band-pass emission. Cellular events were discriminated from debris using forward scatter (FS) and side scatter (SS) signals. Cell aggregates were excluded from analysis based on FS-integral and FS-peak. The gates applied for population discrimination were set manually based on control samples. For each sample, 10,000 events were collected. For further analysis, the cytometric data were exported to Kaluza 2.1 software (Beckman Coulter, Brea, CA, USA). Dead cells were identified and quantified as PI-positive events. The cytotoxic potency of test compounds was quantified using their IC50 values, i.e., the compound concentration at which cell viability is inhibited by 50%, as calculated via curve fitting and determined with the correlation coefficient (R2) using GraphPad Prism 9.0 software. Experiments were carried out in triplicate.

[7] = JM101, 20 h, 37 °C, average of at least three experiments
[8] = 37 °C, average of at least three experiments
[9] = 30 °C, average of at least three experiments
[10] = 298 K, 0.15 mol/dm^3 NaCl, error in last figure in parentheses

| Structure (SMILES) | MIC (Escherichia coli JM101; [7]) [µg/mL] | MIC [1, 8] [µg/mL] | MIC [2] [µg/mL] | MIC [3, 9] [µg/mL] | also measured |
| --- | --- | --- | --- | --- | --- |
| NCCCCNCCCN [Compound 1b, spermidine, reference compound] | 400 | > 400 | > 400 | > 400 | – |
| NCCN(CCN)CCN [Compound 3b, reference compound] | 250 | 400 | > 400 | > 400 | – |
| c1cc2c(cc1CNCCCNCCCCNCCCNCc1ccc3c(c1)OCO3)OCO2 [Compound 2a, N^1,N^1′-(butane-1,4-diyl)bis(N^3-(benzo[d][1,3]dioxol-5-ylmethyl)propane-1,3-diamine)] | 10 | 50 | 250 | 250 | Stepwise protonation constant (log K), H2L + H ⇄ H3L [4, 10]: 8.245 (7); Stepwise protonation constant (log K), H3L + H ⇄ H4L [4, 10]: 7.41 (1); Stepwise protonation constant (log K), L + H ⇄ HL [4, 10]: 10.81 (3); Stepwise protonation constant (log K), LH + H ⇄ H2L [4, 10]: 9.481 (8); log β (cumulative protonation constant) ([4]; 298 K, 0.15 mol/dm^3 NaCl): 35.94; n, average number of positive charges at pH 7.4 [4]: 3.4; MIC [5]: 250 µg/mL (≈ 531 µM); MBC (E. coli JM101): 20 µg/mL (≈ 42.5 µM); MBC (S. aureus BHI): 100 µg/mL (≈ 212 µM); IC50 at 24 h [6]: 8.8 µg/mL (≈ 18.7 µM) |
| c1cc2c(cc1CNCCCCNCCCNCc1ccc3c(c1)OCO3)OCO2 [Compound 1a, N^1-(benzo[d][1,3]dioxol-5-ylmethyl)-N^4-(3-((benzo[d][1,3]dioxol-5-ylmethyl)amino)propyl)butane-1,4-diamine] | 50 | 150 | > 400 | > 400 | Stepwise protonation constant (log K), H2L + H ⇄ H3L [4, 10]: 7.699 (2); Stepwise protonation constant (log K), L + H ⇄ HL [4, 10]: 10.433 (2); Stepwise protonation constant (log K), LH + H ⇄ H2L [4, 10]: 8.964 (2); log β (cumulative protonation constant) ([4]; 298 K, 0.15 mol/dm^3 NaCl): 27.09; n, average number of positive charges at pH 7.4 [4]: 2.7; MIC [5]: > 400 µg/mL; MBC (E. coli JM101): 100 µg/mL (≈ 242 µM); IC50 at 24 h [6]: 11.4 µg/mL (≈ 27.6 µM) |
| c1ccc2c(c1)OCO2 [1,3-Benzodioxole, reference compound] | – | – | > 500 | – | MIC (Escherichia coli JM101; JM101, 20 h): > 500 µg/mL; MIC [1]: > 500 µg/mL; MIC [3]: > 500 µg/mL |
| c1cc2c(cc1CNCCN(CCNCc1ccc3c(c1)OCO3)CCNCc1ccc3c(c1)OCO3)OCO2 [Compound 3a, N^1-(benzo[d][1,3]dioxol-5-ylmethyl)-N^2,N^2-bis(2-((benzo[d][1,3]dioxol-5-ylmethyl)amino)ethyl)ethane-1,2-diamine] | 25 | 15 | > 400 | > 400 | Stepwise protonation constant (log K), H2L + H ⇄ H3L [4, 10]: 6.93 (3); Stepwise protonation constant (log K), L + H ⇄ HL [4, 10]: 9.12 (2); Stepwise protonation constant (log K), LH + H ⇄ H2L [4, 10]: 8.35 (3); n, average number of positive charges at pH 7.4 [4]: 2.1; MIC [5]: > 400 µg/mL; MBC (E. coli JM101): 50 µg/mL (≈ 91.1 µM); MBC (S. aureus BHI): 30 µg/mL (≈ 54.7 µM); IC50 at 24 h [6]: 1.86 µg/mL (≈ 3.39 µM) |
| NCCCNCCCCNCCCN [Compound 2b, spermine, reference compound] | 100 | 400 | > 400 | – | MIC [3]: > 400 µg/mL |
| NCCCNCCN(CCNCCCN)CCNCCCN [Compound 4b] | 400 | 250 | > 400 | > 400 | – |
| CNC(C)C1CCC(N)C(OC2C(N)CC(N)C(OC3OCC(C)(O)C(NC)C3O)C2O)O1 (stereo not shown) [Gentamicin, reference compound] | 0.02 | 0.04 | – | – | – |
| O=C(O)c1cn(C2CC2)c2cc(N3CCNCC3)c(F)cc2c1=O [Ciprofloxacin, reference compound] | 0.04 | 0.1 | – | – | – |
| C[C@@H]1C[C@@H]([C@H](O)CC2CC(=O)NC(=O)C2)C(=O)[C@@H](C)C1 [Cycloheximide, reference compound] | – | – | 0.5 | – | MIC [3]: 0.5 µg/mL |
